One series addresses T1, GppNHp-loaded KRASG12D (Homo sapiens, UniProt P01116, G12D).
T1 construct: made in house; host or cells: Escherichia coli BL21-Gold (DE3)
As to the kind of experiment: Isothermal titration calorimetry. It is filed as binding. The note with it: ITC, 25° C.; read-out: dissociation constant. As for the experimental part: Isothermal Titration Calorimetry (ITC)
All ITC experiments were carried out at 25° C. on a MicoCal Auto-ITC200 system (GE Healthcare).
450 μL of the compound solution was loaded into the cell at 250 μM in ITC buffer (25 mM Tris pH 7.4, 1 mM TCEP, 100 mM NaCl, 5 mM MgCl2, 0.05% Tween-20) with a final DMSO concentration at 1.25% (v/v). KRAS^G12D⋅GppNHp was buffer exchanged into same ITC buffer using Amicon Ultra 10 kDa size exclusion filter spin columns (buffer replaced with ITC buffer four times). Prior to loading 130 μL of KRAS^G12D⋅GppNHp into the syringe at 2.5 mM, DMSO was added to match the amount DMSO present in the cell. ITC titration experiments were carried out at 25° C. with 19 injections, 2 μl per injection, and 180 seconds between each injection. Reference cell power was set to 5 μcal/sec. A control experiment was performed where ITC buffer was titrated into compound 31MEW44 alone to account for heat released due to dilution. This background was subtracted from test data before the final dissociation constant was obtained. Data were analyzed using the one-site binding model in Origin 7.1 software. The dissociation constant, Kd, was calculated according to equation Kd=1/Ka. Gibbs free energy, ΔG, was calculated from the equation ΔG=−RTInKa. −TΔS was calculated from the equation ΔG=ΔH−TΔS. All other parameters, Ka, n, ΔH, were determined directly from the titration data.
Background: ITC needs no label: the signal is the heat of the interaction.

The target in a further series is T2, GppNHp-loaded RHOA (Homo sapiens, UniProt P61586).
T2 construct: purchased Abcam ab101594
As to the kind of experiment: Microscale thermophoresis on GppNHp-loaded RHOA. It counts as binding. The note with it: MST, up to 190 μM. As to the method: (§1) KRAS^G12D (250 μM) in 25 mM HEPES, 100 mM sodium chloride, 2 mM TCEP with 20 mM EDTA and 1 mM GppNHp was shaken at 220 rpm at 30° C. to remove the endogenous nucleotide, The solution was placed on ice for 2 minutes prior to the addition of 65 mM MgCl2. After an additional 10 minutes incubation on ice, 200 uL of a 10 uM solution of KRAS^G12D was combined with 200 uL of a 20 uM solution of NT-647-NHS-ester dye (from a 652.4 μM stock). The protein/dye mixture was rotated at 4° C. for 30 minutes, before being separated from the excess dye and buffer exchanged into 25 mM Tris, 100 mM sodium chloride, 2 mM TCEP, and 5 mM MgCl2 via a nap-5 column. The test compounds were arrayed across a 16-point dilution series consisting of 1.5% DMSO with 25 mM Tris, 100 mM NaCl, 2 mM TCEP, 5 mM MgCl2 and 0.05% tween-20. Thermophoretic movement of the fluorescently labeled protein with the inhibitors was performed using a Monolith NT.115 (Nanotemper Technologies). RALA and RHOA were purchased commercially from Abcam (RALA CN:ab102555, RHOA CN:ab101594).
(§2) To provide evidence that the compound indeed was selective for RAS GTPases, MST binding measurements were performed on GppNHp-loaded RHEB, RHOA and RALA (FIG. 14J).

Series [1] concerns active GTP-bound RALA in BJeLR cells. Briefly: RALA activation assay using RALBP1. It is filed as cell-based. The note with it: 2% FBS. As for the experimental part:
BJeLR cells were seeded 16 hours prior to use in 2% FBS in DMEM. […] After 6 hours cells were washed twice with ice cold buffer (25 mM tris, 100 mM NaCl, 1 mM TCEP, 5 mM MgCl2, 0.1% tween-20 and 1 protease inhibitor/25 mL). Cells were scrapped, pelleted at 13,000 rpm for 10 minutes at 4° C., then passed through a 26 gauge needle several times. The solution was spun down a second time at 13,000 rpm for 15 minutes at 4° C., to remove unlysed cells and debris. RALBP1 agarose beads (EMD Millipore) were then added to the lysate and the solution was rotated at 4° C. for 2 hours. The solutions were spun down at 1500×g for 2 minutes and the supernatant was removed by syringe. The beads were washed twice by this process with buffer, then resuspended in 2.5×SDS.

The next series concerns the target GppNHp-loaded RHEB (Homo sapiens, UniProt Q15382). Briefly: Microscale thermophoresis on GppNHp-loaded RHEB. It is filed as binding. The note with it: MST, up to 190 μM. As for the experimental part: as §1, §2
A general note: MST reads how a fluorescent partner responds to local heating, with and without ligand.

Series [2] relates to KRAS^LSLG12D; p53^fl/fl; Pdx1-Cre pancreatic tumors. As to the kind of experiment: KP^f/fC mouse study. It counts as in vivo. The note with it: for toxicity: 30 mg/kg once daily i.p. As to the method:
KRAS^LSLG12D; p53^fl/fl; Pdx1-Cre (KP^F/FC) mice have been previously described (Bardeesy et al., 2006). Animals were housed in a barrier facility and monitored daily prior to enrollment on studies. All experiments were carried out in compliance with established IACUC guidelines of Columbia University.
Paraffin embedded samples were sectioned at […] and mounted on positively charged sample slides. These slides were heated at 60° C. for 15-30 minutes and subsequently rehydrated by standard protocols. Unmasking was performed in 10 mM citrate buffer, pH 6 for 5 minutes in a pressure cooker at high temperature, followed by a peroxidase quench in 3% hydrogen peroxide for 20 minutes. Blocking was carried out using 1.5% horse serum and 2% animal free blocker (Vector Labs) in TBS-T for 1 hour at room temperature. Slides were incubated with primary antibody (cleaved caspase-3, catalog no. 9664; ERK, catalog no. 4695; pERK, catalog no. 4376. All antibodies from Cell Signaling) overnight at 4° C. Slides were then allowed to equilibrate to room temperature prior to washing with TBS-T and incubation with secondary antibody (ImmPress polymer reagent, Vector Labs). Signal was developed with ImmPACT DAB Peroxidase Substrate (Vector Labs). Slides were counterstained with hematoxylin for 30 seconds. For quantification of cleaved-caspase 3 staining, all available 40× fields on three separate sections of biopsy samples and twenty total 40× fields from two separate sections of necropsy samples were analyzed for each study mouse.
Mice were monitored closely for changes in health status and were sacrificed after 5 days on study or once they met endpoint criteria in keeping with IACUC standards.

For series [3], the system named is primary T-ALL cells with wild-type NRAS. As to the kind of experiment: Viability of patient-derived T-ALL samples cultured in vitro, wild-type NRAS. The note with it: four samples, 5 μM, 72 hours. It counts as cell-based, human. As to the method: Primary Cell Co-Culture and In Vitro Cell Viability Assays.
Cells were harvested 72 hours after treatment and analyzed cell viability using the BD cell viability kit with liquid counting beads (BD Bioscience) gating out stroma cells (GFP+), dead cells and particles (PI+). We acquired data using a FACSCanto II flowcytometer (BD Bioscience) and analyzed it using FlowJo software (Tree Star, Inc.). Viability data is represented as % relative to vehicle treatment.

The mark [4] stands for this setting: pre- vs post-treatment tumor samples, 30 mg/kg i.p.

Sequence of GppNHp-loaded RHEB (Q15382 whole entry): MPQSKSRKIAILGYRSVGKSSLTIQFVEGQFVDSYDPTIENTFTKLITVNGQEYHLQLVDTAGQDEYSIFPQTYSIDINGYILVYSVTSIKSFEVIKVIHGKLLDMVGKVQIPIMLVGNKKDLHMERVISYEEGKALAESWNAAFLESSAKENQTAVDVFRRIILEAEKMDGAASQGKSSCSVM
T2 sequence (P61586 whole entry): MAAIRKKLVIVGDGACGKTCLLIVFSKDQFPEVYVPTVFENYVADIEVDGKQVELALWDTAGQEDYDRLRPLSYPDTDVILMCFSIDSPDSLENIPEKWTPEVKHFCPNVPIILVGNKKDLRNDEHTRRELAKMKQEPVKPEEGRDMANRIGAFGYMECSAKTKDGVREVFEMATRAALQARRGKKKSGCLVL
T1 sequence (P01116 1-169 isoform P01116-2 G12D): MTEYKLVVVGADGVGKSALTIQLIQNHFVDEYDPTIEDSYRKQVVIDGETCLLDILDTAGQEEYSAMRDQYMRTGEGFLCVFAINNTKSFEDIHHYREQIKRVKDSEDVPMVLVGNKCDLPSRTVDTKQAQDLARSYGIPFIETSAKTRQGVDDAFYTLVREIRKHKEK

As to `NC1(C(=O)NCCCn2cc(-c3ccc(OC(F)(F)F)cc3)c3cc(CN4CCN(Cc5c(Cl)cccc5Cl)CC4)ccc32)CCNCC1` [Compound 31MEW44, 4-amino-N-(3-(5-((4-(2,6-dichlorobenzyl)piperazin-1-yl)methyl)-3-(4-(trifluoromethoxy)phenyl)-1H-indol-1-yl)propyl)piperidine-4-carboxamide], the Kd at GppNHp-loaded KRASG12D came to 34 µM. The binding entry on GppNHp-loaded RHOA and on GppNHp-loaded RHEB was “no binding was observed” throughout. Moreover, the “active GTP-bound RALA” value in series [1] is reported as “decreased levels of active GTP-bound RALA”. The results for the toxicity entry in series [2] (KP^f/fC mice) and in series [2] (wild-type mice) were “toxicity was observed” and “not in wild-type mice”, respectively. In addition, the “cleaved caspase-3 in tumor” value in series [2] (immunohistochemistry, 30 mg/kg i.p.) is “modest increase in cleaved caspase-3”. Also, in series [2] (setting [4]), the “phosphorylated AKT (S473) in tumor” value is “substantial decrease”. Further, in series [2] (setting [4]), the “phosphorylated ERK1/2 in tumor” value is “substantial decrease”. Besides, in series [3], the viability result was “no observed decrease in viability”.

The values are drawn from patent publication US9926293B2, “Multivalent RAS binding compounds” (THE TRUSTEES OF COLUMBIA UNIVERSITY IN THE CITY OF NEW YORK, priority 2014, dated 2018).
